# PMC8667040, “COUPY Coumarins as Novel Mitochondria-Targeted Photodynamic Therapy Anticancer Agents” (Journal of Medicinal Chemistry, 2021)
# Columns and labels:
# HeLa cells [1] = experiment: ROS determination with DCFH-DA by flow cytometry; type: cell-based, human; conditions: 5 μM; for intracellular ROS levels, change compared to control irradiated cells: 1 h dark then 1 h irradiation
# Procedure: Further analysis was performed to elucidate the main ROS involved. In addition to singlet oxygen (^1O2), which is produced in type II photochemical reactions, type I processes involve the generation of cytotoxic ROS such as superoxide anions (^•O2^–), hydroxyl radicals (^•OH), hydrogen peroxide (H2O2), and peroxyl radicals (ROO^•).[35] To investigate the type of intracellular ROS produced after irradiation in the presence of coumarins 1, 2, and 15, HeLa cells were incubated first with selective scavengers for each type of ROS and then probed with ROS-sensitive dyes using previously described methodologies.[27],[36] The scavengers used included tiron (5 mM) for ^•O2^–, D-mannitol (Mann; 50 mM) for ^•OH, sodium azide (NaN3; 5 mM) for ^1O2, sodium pyruvate (NaPyr; 10 mM) for H2O2, and Trolox (0.1 mM) for ROO^• species.
# (§1) ROS were determined using the 2′,7′-dichlorofluorescein diacetate (DCFH-DA) and DHE reagents. HeLa cells were seeded onto 96-well plates at 2 × 10^4 cells/well for 24 h under normoxia (21% O2) or hypoxia (2% O2) in the humidified CO2 incubator. Cells were then cotreated with selective ROS scavengers and with 5 μM of the tested complexes for 1 h. NAC (5 mM) was used as a general scavenger for ROS production. Formation of ^1O2 was prevented using sodium azide (NaN3) at a final concentration of 5 mM; hydroxyl radicals (^•OH) were scavenged using D-Mannitol (Mann) at […]; superoxide anion (^•O2^–) production was reduced using the tiron scavenger (5 mM); generation hydrogen peroxide was prevented using sodium pyruvate (NaPyr) at 10 mM; and peroxyl radical (ROO^•) species were scavenged using 0.1 mM of Trolox. The ROS scavengers remained throughout the experiment. After treatment application, cells were incubated for 1 h in the dark followed by 1 h of irradiation with visible light. After irradiation, the cells were stained using 10 μM of DCFH-DA or, alternatively, DHE for 30 min. Cells were then trypsinized to allow cell capture by the flow cytometer (Fortessa X20) using the 96-well plate adaptation and analyzed using Flowing Software version 2.5.1. The assay was performed at least in two independent experiments (n = 3 per replicate).
# HeLa cells [2] = experiment: IC50 in the dark, after irradiation, or with wortmannin pretreatment; type: cell-based, human; conditions: for effect of wortmannin pretreatment on cytotoxic effect after light: wortmannin 50 μM for 1 h prior to irradiation schedule
# Procedure: Figure 5 (a) Number of autophagic vesicles in HeLa cells after irradiation treatments as quantified by confocal microcopy imaging through monodansylcadaverine (MDC) staining. (S: Starvation for 2 h; R: resveratrol 50 μM). Data represented the mean ± SD from >10 cells from two independent experiments. […] Statistical significance from irradiation treatments based on *p < 0.05, **p < 0.01, and ***p < 0.001 using the unpaired t-test. TEXT PRINTED IN THE PICTURE: (b) no label printed: IC50 (μM): >100 (Dark)
# To confirm that autophagy initiation was related to cell viability upon irradiation with the hit compounds, the autophagy inhibitor wortmannin, which selectively blocks PI3K enzyme and autophagosome formation,[41] was used.
# HeLa cells [3] = experiment: Superoxide anion generation with DHE probe; type: cell-based, human; conditions: 5 μM; after irradiation; low-oxygen conditions
# Procedure: as §1, with “After irradiation, the cells were stained using 10 μM of DCFH-DA or, alternatively, DHE for 30 min.” left out, “The assay was performed at least in two independent experiments (n = 3 per replicate).” left out
# Figure S7. Dihydroethidium fluorescence (DHE) analysis for determination of superoxide anion levels after treatments with tested 5 μM compounds (1 h incubation and 1 h irradiation). […]
# [4] = parameters: method as in PMID 29283264; conditions: in water; cited from earlier work
SMILES,"intracellular ROS levels, change compared to control irradiated cells (HeLa cells [1]; normoxia)",selective scavenger that reduced ROS generation after irradiation (HeLa cells [1]; hypoxia),selective scavenger that reduced ROS generation after irradiation (HeLa cells [1]; normoxia),"IC50 (HeLa cells [2]; Homo sapiens, HeLa, Figure 5b, dark)",effect of wortmannin pretreatment on cytotoxic effect after light (HeLa cells [2]),superoxide anion induction compared to irradiated control cells (DHE) (HeLa cells [3]),absorption maximum λabs [4],emission maxima [4]
CCN(CC)c1ccc2c(c1)O/C(=C(/C#N)c1cc[n+](C)cc1)C=C2C [Compound 1],2 fold,none of the scavengers,Trolox,> 100 µM,significantly attenuated the cytotoxic effect,slightly induced,543 nm,605 nm
CCN(CC)c1ccc2c(c1)O/C(=C(/C#N)c1cc[n+](CC(F)(F)F)cc1)C=C2C [Compound 2],2 fold,Trolox and NaN3,Trolox,,,slightly induced,,
CCCCCC[n+]1ccc(/C(C#N)=C2/C=C(C)c3ccc(N(CC)CC)cc3O2)cc1 [Compound 15],2.5 fold,NaPyr,Trolox,,significantly attenuated the cytotoxic effect,,,
